Reference: PubChem BioAssay (NCI)
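Protocol summary: plate cells (96-well), add compound at 5 concentrations, incubate 48 h, interpolate endpoints linearly. GI50: concentration for 50% inhibition of growth. Definition used: TGI = concentration required for complete inhibition of growth.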

Key:
Assay in all cases: DTP human tumour cell line panel, 48 h
[1] = tested on: TK-10 renal
[2] = tested on: IGROV1 ovarian
[3] = tested on: SF-539 CNS
[4] = tested on: SR leukemia
[5] = tested on: SF-295 CNS
[6] = tested on: MDA-MB-231 breast
[7] = tested on: UACC-62 melanoma
[8] = tested on: RPMI-8226 leukemia
[9] = tested on: CCRF-CEM leukemia
[10] = tested on: BT-549 breast
[11] = tested on: HOP-92 NSCLC
[12] = tested on: HCT-15 colon
[13] = tested on: OVCAR-5 ovarian
[14] = tested on: OVCAR-4 ovarian
[15] = tested on: MCF7 breast
[16] = tested on: NCI-H226 lung
[17] = tested on: HT29 colon
[18] = tested on: HS 578T breast
[19] = tested on: 786-0 renal
[20] = tested on: OVCAR-8 ovarian
[21] = tested on: MALME-3M melanoma
[22] = tested on: T-47D breast
[23] = tested on: SK-MEL-5 melanoma
[24] = tested on: SF-268 CNS
[25] = tested on: U251 CNS
[26] = tested on: HCT-116 colon
[27] = tested on: RXF 393 renal
[28] = tested on: SNB-19 CNS
[29] = tested on: HCC-2998 colon
[30] = tested on: HOP-62 NSCLC
[31] = tested on: LOX IMVI melanoma
[32] = tested on: SK-MEL-2 melanoma
[33] = tested on: COLO 205 colon
[34] = tested on: CAKI-1 renal
[35] = tested on: K-562 leukemia
[36] = tested on: SNB-75 CNS
[37] = tested on: MOLT-4 leukemia
[38] = tested on: NCI/ADR-RES ovarian
[39] = tested on: SK-MEL-28 melanoma
[40] = tested on: NCI-H23 lung
[41] = tested on: PC-3 prostate
[42] = tested on: NCI-H460 lung
[43] = tested on: SK-OV-3 ovarian
[44] = tested on: ACHN renal
[45] = tested on: SW-620 colon
[46] = tested on: A498 renal
[47] = tested on: OVCAR-3 ovarian
[48] = tested on: HL-60(TB) leukemia
[49] = tested on: UACC-257 melanoma
[50] = tested on: NCI-H522 lung
[51] = tested on: UO-31 renal
[52] = tested on: MDA-MB-435
[53] = tested on: KM12 colon
[54] = tested on: DU-145 prostate
[55] = tested on: EKVX NSCLC
[56] = tested on: SN12C renal
[57] = tested on: A549 NSCLC

CC[C@H]1OC(=O)[C@H](C)[C@@H](O[C@H]2C[C@@](C)(OC)[C@@H](O)[C@H](C)O2)[C@H](C)[C@@H](O[C@@H]2O[C@H](C)C[C@H](N(C)C)[C@H]2O)[C@](C)(OC)C/C(C)=C2/O[C@@]1(C)C=C2C
GI50 [1]: 1720 nM
TGI [1]: 3320 nM
GI50 [2]: 1590 nM
TGI [2]: 3030 nM
GI50 [3]: 1620 nM
TGI [3]: 2990 nM
GI50 [4]: 1970 nM
TGI [4]: 5090 nM
GI50 [5]: 1850 nM
TGI [5]: 3350 nM
GI50 [6]: 1670 nM
TGI [6]: 3130 nM
GI50 [7]: 1760 nM
TGI [7]: 3180 nM
GI50 [8]: 1900 nM
TGI [8]: 5140 nM
GI50 [9]: 2220 nM
TGI [9]: 5620 nM
GI50 [10]: 1660 nM
TGI [10]: 3280 nM
GI50 [11]: 1570 nM
TGI [11]: 3820 nM
GI50 [12]: 1890 nM
TGI [12]: 3600 nM
GI50 [13]: 1680 nM
TGI [13]: 3060 nM
GI50 [14]: 1850 nM
TGI [14]: 4220 nM
GI50 [15]: 1820 nM
TGI [15]: 3630 nM
GI50 [16]: 2120 nM
TGI [16]: 4420 nM
GI50 [17]: 1830 nM
TGI [17]: 4140 nM
GI50 [18]: 1680 nM
TGI [18]: 3620 nM
GI50 [19]: 1640 nM
TGI [19]: 3160 nM
GI50 [20]: 2200 nM
TGI [20]: 5750 nM
GI50 [21]: 1580 nM
TGI [21]: 2970 nM
GI50 [22]: 1960 nM
TGI [22]: 4560 nM
GI50 [23]: 1790 nM
TGI [23]: 3210 nM
GI50 [24]: 1600 nM
TGI [24]: 3300 nM
GI50 [25]: 1750 nM
TGI [25]: 3540 nM
GI50 [26]: 1930 nM
TGI [26]: 4360 nM
GI50 [27]: 2090 nM
TGI [27]: 3750 nM
GI50 [28]: 1700 nM
TGI [28]: 3130 nM
GI50 [29]: 1140 nM
TGI [29]: 2530 nM
GI50 [30]: 2310 nM
TGI [30]: 4740 nM
GI50 [31]: 1610 nM
TGI [31]: 3080 nM
GI50 [32]: 1850 nM
TGI [32]: 3730 nM
GI50 [33]: 1680 nM
TGI [33]: 3690 nM
GI50 [34]: 1510 nM
TGI [34]: 2930 nM
GI50 [35]: 1560 nM
TGI [35]: 4800 nM
GI50 [36]: 1270 nM
TGI [36]: 2640 nM
GI50 [37]: 1960 nM
TGI [37]: 4490 nM
GI50 [38]: 1770 nM
TGI [38]: 3570 nM
GI50 [39]: 1890 nM
TGI [39]: 3320 nM
GI50 [40]: 1960 nM
TGI [40]: 3630 nM
GI50 [41]: 1680 nM
TGI [41]: 3460 nM
GI50 [42]: 1810 nM
TGI [42]: 3350 nM
GI50 [43]: 1910 nM
TGI [43]: 3750 nM
GI50 [44]: 1760 nM
TGI [44]: 3150 nM
GI50 [45]: 1780 nM
TGI [45]: 3420 nM
GI50 [46]: 1750 nM
TGI [46]: 3590 nM
GI50 [47]: 1760 nM
TGI [47]: 3280 nM
GI50 [48]: 1860 nM
TGI [48]: 4160 nM
GI50 [49]: 1830 nM
TGI [49]: 3620 nM
GI50 [50]: 1720 nM
TGI [50]: 3630 nM
GI50 [51]: 1370 nM
TGI [51]: 2650 nM
GI50 [52]: 1670 nM
TGI [52]: 3150 nM
GI50 [53]: 1630 nM
TGI [53]: 3110 nM
GI50 [54]: 1820 nM
TGI [54]: 3390 nM
GI50 [55]: 1710 nM
TGI [55]: 3260 nM
GI50 [56]: 1640 nM
TGI [56]: 3020 nM
GI50 [57]: 1630 nM
TGI [57]: 3420 nM
